Among the data in PubChem BioAssay AID1259407 (Chemical Carcinogenesis Research Information System (CCRIS), 2018) are mutagenic call values, retold here.

The source made the active and inactive calls. No rule for the calls is given here.

The subject of the series is CCRIS mutagenicity, Ames/micronucleus/aberration tests. In words: CCRIS mutagenicity studies.
[1] abbreviates: Test System: AMES SALMONELLA TYPHIMURIUM, Strain/Indicator: TA98, Metabolic Activation: NONE, Method: STANDARD PLATE.
Setting [2] is: Test System: AMES SALMONELLA TYPHIMURIUM, Strain/Indicator: TA98, Metabolic Activation: RAT, LIVER, S-9, AROCLOR 1254, Method: STANDARD PLATE.
Where [3] appears, read: Test System: AMES SALMONELLA TYPHIMURIUM, Strain/Indicator: TA100, Metabolic Activation: NONE, Method: STANDARD PLATE.
The mark [4] stands for this setting: Test System: AMES SALMONELLA TYPHIMURIUM, Strain/Indicator: TA100, Metabolic Activation: RAT, LIVER, S-9, AROCLOR 1254, Method: STANDARD PLATE.
[5] abbreviates: Test System: AMES SALMONELLA TYPHIMURIUM, Strain/Indicator: TA1535, Metabolic Activation: NONE, Method: STANDARD PLATE.
Setting [6] is: Test System: AMES SALMONELLA TYPHIMURIUM, Strain/Indicator: TA1535, Metabolic Activation: RAT, LIVER, S-9, AROCLOR 1254, Method: STANDARD PLATE.
The mark [7] stands for this setting: Test System: AMES SALMONELLA TYPHIMURIUM, Strain/Indicator: TA1537, Metabolic Activation: NONE, Method: STANDARD PLATE.
The mark [8] stands for this setting: Test System: AMES SALMONELLA TYPHIMURIUM, Strain/Indicator: TA1537, Metabolic Activation: RAT, LIVER, S-9, AROCLOR 1254, Method: STANDARD PLATE.
Setting [9] is: Test System: AMES SALMONELLA TYPHIMURIUM, Strain/Indicator: TA98, Metabolic Activation: NONE, Method: PREINCUBATION
The mark [10] stands for this setting: Test System: AMES SALMONELLA TYPHIMURIUM, Strain/Indicator: TA100, Metabolic Activation: NONE, Method: PREINCUBATION

In the case of `O=S(O)S(=O)(=O)O`, the mutagenic call is, setting by setting: (End Point: In vitro chromosomal aberration, Test System: Human lymphocytes, Metabolic Activation: None) “active; positive (structural changes)”; (End Point: In vitro micronucleus, Test System: Human lymphocytes, Metabolic Activation: None) “active; positive”; (End Point: In vivo micronucleus, Test System: Bone marrow cells, Species: Rat, Strain/Sex: Rattus norvegicus var. albino / Male, female, Route: Intraperitoneal) “active; positive (structural changes)”; (Test System: AMES SALMONELLA TYPHIMURIUM, Strain/Indicator: TA97, Metabolic Activation: NONE, Method: PREINCUBATION) “inactive; negative”; (Test System: AMES SALMONELLA TYPHIMURIUM, Strain/Indicator: TA97, Metabolic Activation: RAT, LIVER, S-9, AROCLOR 1254, Method: PREINCUBATION) “inactive; negative”; under setting [1], “inactive; negative”. For the same molecule, the mutagenic call was “inactive; negative” under setting [2]; “inactive; negative” under setting [3]; “inactive; negative” under setting [4]; “inactive; negative” (Test System: AMES SALMONELLA TYPHIMURIUM, Strain/Indicator: TA102, Metabolic Activation: NONE, Method: PREINCUBATION); “inactive; negative” (Test System: AMES SALMONELLA TYPHIMURIUM, Strain/Indicator: TA102, Metabolic Activation: RAT, LIVER, S-9, AROCLOR 1254, Method: PREINCUBATION); “inactive; negative” under setting [5]. For the same molecule, the mutagenic call by setting is: under setting [6], “inactive; negative”; under setting [7], “inactive; negative”; under setting [8], “inactive; negative”; (Test System: AMES SALMONELLA TYPHIMURIUM, Strain/Indicator: TA1538, Metabolic Activation: NONE, Method: STANDARD PLATE) “inactive; negative”; (Test System: AMES SALMONELLA TYPHIMURIUM, Strain/Indicator: TA1538, Metabolic Activation: RAT, LIVER, S-9, AROCLOR 1254, Method: STANDARD PLATE) “inactive; negative”; (Test System: E. COLI, Strain/Indicator: WP2, Metabolic Activation: NONE, Method: STANDARD PLATE) “inactive; negative”. For the same molecule, the mutagenic call (Test System: E. COLI, Strain/Indicator: WP2, Metabolic Activation: RAT, LIVER, S-9, AROCLOR 1254, Method: STANDARD PLATE) was “inactive; negative”.
As for `O.O.O=C([O-])C(=O)[O-].O=C([O-])C(=O)[O-].[K+].[K+].[Pt+2]`, the mutagenic call under setting [9] is “inactive; negative”; the mutagenic call (Test System: AMES SALMONELLA TYPHIMURIUM, Strain/Indicator: TA98, Metabolic Activation: RAT, LIVER, S-9, AROCLOR 1254, Method: PREINCUBATION) was “inactive; negative”; the mutagenic call under setting [10] was “inactive; negative”; the mutagenic call (Test System: AMES SALMONELLA TYPHIMURIUM, Strain/Indicator: TA100, Metabolic Activation: RAT, LIVER, S-9, AROCLOR 1254, Method: PREINCUBATION) is “inactive; negative”.
On to `c1ccc2c(c1)COC2`, for which, under setting [9], the mutagenic call is “active; positive”.
For the molecule `Nc1ccc(O)c(N)c1`, the mutagenic call (End Point: IN VITRO CHROMOSOMAL ABERRATIONS, Test System: CHINESE HAMSTER OVARY CELLS, Metabolic Activation: NONE) was “inactive; negative”; the mutagenic call (End Point: IN VITRO CHROMOSOMAL ABERRATIONS, Test System: CHINESE HAMSTER OVARY CELLS, Metabolic Activation: RAT, LIVER, S-9, AROCLOR 1254) is “inactive; negative”; the mutagenic call (Test System: AMES SALMONELLA TYPHIMURIUM, Strain/Indicator: TA98, Metabolic Activation: HAMSTER, LIVER, S-9, AROCLOR 1254 (10%), Method: PREINCUBATION) is “active; positive”; the mutagenic call under setting [9] is “inactive; negative”; the mutagenic call (Test System: AMES SALMONELLA TYPHIMURIUM, Strain/Indicator: TA98, Metabolic Activation: RAT, LIVER, S-9, AROCLOR 1254 (10%), Method: PREINCUBATION) is “active; positive”; the mutagenic call (Test System: AMES SALMONELLA TYPHIMURIUM, Strain/Indicator: TA100, Metabolic Activation: HAMSTER, LIVER, S-9, AROCLOR 1254 (10%), Method: PREINCUBATION) was “inactive; negative”. Moreover, the mutagenic call under setting [10] was “inactive; negative”; the mutagenic call (Test System: AMES SALMONELLA TYPHIMURIUM, Strain/Indicator: TA100, Metabolic Activation: RAT, LIVER, S-9, AROCLOR 1254 (10%), Method: PREINCUBATION) was “inactive; negative”; the mutagenic call (Test System: AMES SALMONELLA TYPHIMURIUM, Strain/Indicator: TA1535, Metabolic Activation: HAMSTER, LIVER, S-9, AROCLOR 1254 (10%), Method: PREINCUBATION) was “inactive; negative”; the mutagenic call (Test System: AMES SALMONELLA TYPHIMURIUM, Strain/Indicator: TA1535, Metabolic Activation: NONE, Method: PREINCUBATION) was “inactive; negative”; the mutagenic call (Test System: AMES SALMONELLA TYPHIMURIUM, Strain/Indicator: TA1535, Metabolic Activation: RAT, LIVER, S-9, AROCLOR 1254 (10%), Method: PREINCUBATION) was “inactive; negative”; the mutagenic call (Test System: AMES SALMONELLA TYPHIMURIUM, Strain/Indicator: TA1537, Metabolic Activation: HAMSTER, LIVER, S-9, AROCLOR 1254 (10%), Method: PREINCUBATION) is “inactive; negative”. Besides, the mutagenic call was “inactive; negative” (Test System: AMES SALMONELLA TYPHIMURIUM, Strain/Indicator: TA1537, Metabolic Activation: NONE, Method: PREINCUBATION); “inactive; negative” (Test System: AMES SALMONELLA TYPHIMURIUM, Strain/Indicator: TA1537, Metabolic Activation: RAT, LIVER, S-9, AROCLOR 1254 (10%), Method: PREINCUBATION); “active; positive” (Test System: MOUSE LYMPHOMA, Strain/Indicator: L5178Y (TK+/TK-), Metabolic Activation: NONE, Method: SUSPENSION/PLATE).
In the case of `CC(=O)[O-].CC(=O)[O-].[Cd+2]`, the mutagenic call by setting is: (End Point: IN VITRO MICRONUCLEUS, Test System: CHL/IU CELLS, Metabolic Activation: NONE) “active; positive”; (Test System: CHINESE HAMSTER OVARY, Strain/Indicator: CHO-K1 (HPRT)/6-THIOGUANINE, Metabolic Activation: NONE) “active; positive”.
Regarding `O=C(O)c1cccc2cccnc12`, the mutagenic call by setting is: under setting [1], “inactive; negative”; under setting [2], “inactive; negative”; under setting [3], “inactive; negative”; under setting [4], “inactive; negative”; under setting [5], “inactive; negative”; under setting [6], “inactive; negative”. Besides, the mutagenic call is, setting by setting: under setting [7], “inactive; negative”; under setting [8], “inactive; negative”.
Regarding `Cc1cccc2cc3c(cc12)-c1cccc2cccc-3c12`, the mutagenic call (Test System: AMES SALMONELLA TYPHIMURIUM, Strain/Indicator: TA100, Metabolic Activation: RAT, LIVER, S-9, AROCLOR 1254) was “active; positive”.
As for `C1=Cc2cc3cccc4c5ccccc5c5ccc1c2c5c34`, the mutagenic call (Test System: AMES SALMONELLA TYPHIMURIUM, Strain/Indicator: TA98, Metabolic Activation: RAT, LIVER, S-9, AROCLOR 1254 (0.14 OR 0.41 MG), Method: STANDARD PLATE) was “active; positive”; the mutagenic call (Test System: AMES SALMONELLA TYPHIMURIUM, Strain/Indicator: TA100, Metabolic Activation: RAT, LIVER, S-9, AROCLOR 1254 (0.14 OR 0.41 MG), Method: STANDARD PLATE) was “active; positive”; the mutagenic call (Test System: AMES SALMONELLA TYPHIMURIUM, Strain/Indicator: TA104, Metabolic Activation: RAT, LIVER, S-9, AROCLOR 1254 (0.14 OR 0.41 MG), Method: STANDARD PLATE) was “active; positive”; the mutagenic call (Test System: AMES SALMONELLA TYPHIMURIUM, Strain/Indicator: TA1535, Metabolic Activation: RAT, LIVER, S-9, AROCLOR 1254 (0.14 OR 0.41 MG), Method: STANDARD PLATE) was “inactive; negative”; the mutagenic call (Test System: AMES SALMONELLA TYPHIMURIUM, Strain/Indicator: TA1537, Metabolic Activation: RAT, LIVER, S-9, AROCLOR 1254 (0.14 OR 0.41 MG), Method: STANDARD PLATE) was “active; positive”; the mutagenic call (Test System: AMES SALMONELLA TYPHIMURIUM, Strain/Indicator: TA1538, Metabolic Activation: RAT, LIVER, S-9, AROCLOR 1254 (0.14 OR 0.41 MG), Method: STANDARD PLATE) is “active; positive”.
